Reference: ChEMBL document CHEMBL1201861, “Genomics of Drug Sensitity in Cancer screening data, Wellcome Trust Sanger Institute”

Assays:
Assay in all cases: cells
Type in all cases: functional, cell-based
SK-MES-1 = details: Homo sapiens;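 further: growth inhibition of human SK-MES-1 cells, read out with a cell viability assay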
Description: SANGER: Inhibition of human SK-MES-1 cell growth in a cell viability assay.

NUGC-3 = details: Homo sapiens;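 further: growth inhibition of human NUGC-3 cells, read out with a cell viability assay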
Description: SANGER: Inhibition of human NUGC-3 cell growth in a cell viability assay.

BHY = details: Homo sapiens;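 further: cell growth inhibition read out by a viability assay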
Description: SANGER: Inhibition of human BHY cell growth in a cell viability assay.

D-542MG = details: Homo sapiens
Description: SANGER: Inhibition of human D-542MG cell growth in a cell viability assay.

SIMA = details: Homo sapiens;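 further: growth inhibition of SIMA cells, measured with a cell viability readout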
Description: SANGER: Inhibition of human SIMA cell growth in a cell viability assay.

HT-1080 = details: Homo sapiens
Description: SANGER: Inhibition of human HT-1080 cell growth in a cell viability assay.

Ca-Ski = details: Homo sapiens;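 further: cell viability assay measuring inhibition of Ca-Ski cell growth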
Description: SANGER: Inhibition of human Ca-Ski cell growth in a cell viability assay.

HSC-2 = details: Homo sapiens;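 further: growth inhibition of human HSC-2 cells, read out by a cell viability assay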
Description: SANGER: Inhibition of human HSC-2 cell growth in a cell viability assay.

SW1990 = details: Homo sapiens;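 further: cell growth inhibition determined with a viability assay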
Description: SANGER: Inhibition of human SW1990 cell growth in a cell viability assay.

BXPC-3 = details: Homo sapiens;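 further: growth inhibition of human BxPC-3 cells, read out by a cell viability assay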
Description: SANGER: Inhibition of human BxPC-3 cell growth in a cell viability assay.

OVCAR-3 = details: Homo sapiens;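 further: growth inhibition of human OVCAR-3 cells, determined by a cell viability assay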
Description: SANGER: Inhibition of human OVCAR-3 cell growth in a cell viability assay.

SR = details: Homo sapiens
Description: SANGER: Inhibition of human SR cell growth in a cell viability assay.

T47D = details: Homo sapiens;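 further: growth inhibition of human T47D cells, measured with a cell viability assay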
Description: SANGER: Inhibition of human T47D cell growth in a cell viability assay.

LP-1 = details: Homo sapiens;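 further: growth inhibition of human LP-1 cells, with the read-out taken from a cell viability assay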
Description: SANGER: Inhibition of human LP-1 cell growth in a cell viability assay.

SN12C = details: Homo sapiens;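 further: growth inhibition of human SN12C cells, measured by a cell viability assay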
Description: SANGER: Inhibition of human SN12C cell growth in a cell viability assay.

MDA-MB-231 = details: Homo sapiens
Description: SANGER: Inhibition of human MDA-MB-231 cell growth in a cell viability assay.

HSC-3 = details: Homo sapiens
Description: SANGER: Inhibition of human HSC-3 cell growth in a cell viability assay.

NCI-H1694 = details: Homo sapiens;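 further: cell viability assay measuring inhibition of growth in human NCI-H1694 cells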
Description: SANGER: Inhibition of human NCI-H1694 cell growth in a cell viability assay.

RL = details: Homo sapiens
Description: SANGER: Inhibition of human RL cell growth in a cell viability assay.

C-33-A = details: Homo sapiens;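 further: cell viability assay measuring growth inhibition of C-33-A cells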
Description: SANGER: Inhibition of human C-33-A cell growth in a cell viability assay.

EVSA-T = details: Homo sapiens;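 further: growth inhibition of EVSA-T cells, read out with a cell viability assay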
Description: SANGER: Inhibition of human EVSA-T cell growth in a cell viability assay.

NCI-H1437 = details: Homo sapiens;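 further: growth inhibition of human NCI-H1437 cells, read out by a cell viability assay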
Description: SANGER: Inhibition of human NCI-H1437 cell growth in a cell viability assay.

PC-14 = details: Homo sapiens;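 further: cell viability assay measuring inhibition of PC-14 cell growth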
Description: SANGER: Inhibition of human PC-14 cell growth in a cell viability assay.

HCC1599 = details: Homo sapiens;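 further: growth inhibition of HCC1599 cells, read out in a cell viability assay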
Description: SANGER: Inhibition of human HCC1599 cell growth in a cell viability assay.

AU565 = details: Homo sapiens;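 further: cell viability assay measuring growth inhibition of human AU565 cells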
Description: SANGER: Inhibition of human AU565 cell growth in a cell viability assay.

UACC-812 = details: Homo sapiens
Description: SANGER: Inhibition of human UACC-812 cell growth in a cell viability assay.

DK-MG = details: Homo sapiens;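 further: growth inhibition of DK-MG cells, read out with a cell viability assay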
Description: SANGER: Inhibition of human DK-MG cell growth in a cell viability assay.

NCI-H889 = details: Homo sapiens;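 further: cell growth inhibition of the cell line, read out with a viability assay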
Description: SANGER: Inhibition of human NCI-H889 cell growth in a cell viability assay.

KMS-12-PE = details: Homo sapiens;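 further: growth inhibition of human KMS-12-PE cells, measured with a cell viability assay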
Description: SANGER: Inhibition of human KMS-12-PE cell growth in a cell viability assay.

NCI-H1623 = details: Homo sapiens;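 further: cell viability assay used as the read-out for growth inhibition of NCI-H1623 cells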
Description: SANGER: Inhibition of human NCI-H1623 cell growth in a cell viability assay.

HCC1937 = details: Homo sapiens;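 further: growth inhibition measured with a cell viability read-out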
Description: SANGER: Inhibition of human HCC1937 cell growth in a cell viability assay.

NCI-H1563 = details: Homo sapiens;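 further: growth inhibition of human NCI-H1563 cells, read out with a cell viability assay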
Description: SANGER: Inhibition of human NCI-H1563 cell growth in a cell viability assay.

CWR22R = details: Homo sapiens, 22Rv1;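 further: growth inhibition of 22Rv1 cells, read out with a cell viability assay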
Description: SANGER: Inhibition of human 22RV1 cell growth in a cell viability assay.

LC4-1 = details: Homo sapiens;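 further: growth inhibition of LC4-1 cells, read out with a cell viability assay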
Description: SANGER: Inhibition of human LC4-1 cell growth in a cell viability assay.

LCLC-103H cell line = details: Homo sapiens
Description: SANGER: Inhibition of human LCLC-103H cell growth in a cell viability assay.

G-361 = details: Homo sapiens
LoVo = details: Homo sapiens;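 further: growth inhibition of human LoVo cells, read out with a cell viability assay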
Description: SANGER: Inhibition of human LoVo cell growth in a cell viability assay.

Daoy = details: Homo sapiens;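 further: daoy cell growth inhibition, read out as cell viability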
Description: SANGER: Inhibition of human Daoy cell growth in a cell viability assay.

COLO-679 = details: Homo sapiens
Description: SANGER: Inhibition of human COLO-679 cell growth in a cell viability assay.

MeWo = details: Homo sapiens;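 further: growth inhibition of MeWo cells, determined by a cell viability readout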
Description: SANGER: Inhibition of human Mewo cell growth in a cell viability assay.

NCI-H345 = details: Homo sapiens;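 further: growth inhibition of NCI-H345 cells measured with a cell viability assay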
Description: SANGER: Inhibition of human NCI-H345 cell growth in a cell viability assay.

Raji = details: Homo sapiens;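 further: cell viability assay measuring inhibition of Raji cell growth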
Description: SANGER: Inhibition of human Raji cell growth in a cell viability assay.

U-251 = details: Homo sapiens;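 further: growth inhibition of human U-251 cells, read out through a cell viability assay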
Description: SANGER: Inhibition of human U251 cell growth in a cell viability assay.

HCC1395 = details: Homo sapiens;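 further: growth inhibition of HCC1395 cells, read out by a cell viability assay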
Description: SANGER: Inhibition of human HCC1395 cell growth in a cell viability assay.

EHEB = details: Homo sapiens;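 further: growth inhibition of human EHEB cells, read out with a cell viability assay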
Description: SANGER: Inhibition of human EHEB cell growth in a cell viability assay.

J82 = details: Homo sapiens;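 further: growth inhibition of J82 cells, read out with a cell viability assay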
Description: SANGER: Inhibition of human J82 cell growth in a cell viability assay.

NB12 = details: Homo sapiens;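 further: growth inhibition of human NB12 cells, read out by a cell viability assay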
Description: SANGER: Inhibition of human NB12 cell growth in a cell viability assay.

NCI-H441 = details: Homo sapiens;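 further: growth inhibition of NCI-H441 cells, read out with a cell viability assay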
Description: SANGER: Inhibition of human NCI-H441 cell growth in a cell viability assay.

NCI-N87 = details: Homo sapiens;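 further: growth inhibition of human NCI-N87 cells, read out with a cell viability assay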
Description: SANGER: Inhibition of human NCI-N87 cell growth in a cell viability assay.

OVCAR-5 = details: Homo sapiens;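 further: growth inhibition of human OVCAR-5 cells, read out with a cell viability assay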
Description: SANGER: Inhibition of human OVCAR-5 cell growth in a cell viability assay.

NCI-H522 = details: Homo sapiens;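 further: cell viability assay measuring growth inhibition of human NCI-H522 cells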
Description: SANGER: Inhibition of human NCI-H522 cell growth in a cell viability assay.

CAL-39 = details: Homo sapiens;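 further: cell viability assay measuring growth inhibition of CAL-39 cells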
Description: SANGER: Inhibition of human CAL-39 cell growth in a cell viability assay.

NCI-H727 = details: Homo sapiens;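 further: growth inhibition of human NCI-H727 cells, read out with a cell viability assay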
Description: SANGER: Inhibition of human NCI-H727 cell growth in a cell viability assay.

MDA-MB-157 = details: Homo sapiens
Description: SANGER: Inhibition of human MDA-MB-157 cell growth in a cell viability assay.

CMK = details: Homo sapiens;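 further: growth inhibition of CMK cells, read out as cell viability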
Description: SANGER: Inhibition of human CMK cell growth in a cell viability assay.

A2780 = details: Homo sapiens;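 further: growth inhibition of A2780 cells, read out with a cell viability assay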
Description: SANGER: Inhibition of human A2780 cell growth in a cell viability assay.

OAW-42 = details: Homo sapiens;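 further: growth inhibition of OAW-42 cells, read out with a cell viability assay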
Description: SANGER: Inhibition of human OAW-42 cell growth in a cell viability assay.

SNU-C1 = details: Homo sapiens;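 further: growth inhibition of SNU-C1 human cells, read out by a cell viability assay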
Description: SANGER: Inhibition of human SNU-C1 cell growth in a cell viability assay.

CHL-1 = details: Homo sapiens;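 further: cell growth inhibition, read out with a cell viability assay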
Description: SANGER: Inhibition of human CHL-1 cell growth in a cell viability assay.

NCI-H1573 = details: Homo sapiens;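 further: growth inhibition of NCI-H1573 cells, read out with a cell viability assay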
Description: SANGER: Inhibition of human NCI-H1573 cell growth in a cell viability assay.

A-375 = details: Homo sapiens
Description: SANGER: Inhibition of human A375 cell growth in a cell viability assay.

SK-MM-2 = details: Homo sapiens
Description: SANGER: Inhibition of human SK-MM-2 cell growth in a cell viability assay.

A-427 = details: Homo sapiens
Description: SANGER: Inhibition of human A427 cell growth in a cell viability assay.

LOUCY = details: Homo sapiens
Description: SANGER: Inhibition of human LOUCY cell growth in a cell viability assay.

In the case of `N#C/C(=C1/Nc2ccccc2S1)c1ccnc(NCCc2cccnc2)n1`, the IC50 (SK-MES-1) is reported as 3440 nM, the IC50 (NUGC-3) is reported as > 8000 nM and the IC50 (BHY) is reported as > 8000 nM. The IC50 (D-542MG) was > 8000 nM, the IC50 (SIMA) was > 8000 nM and the IC50 (HT-1080) was > 8000 nM. For the same compound, the IC50 (Ca-Ski) was > 8000 nM, the IC50 (HSC-2) was > 8000 nM and the IC50 (SW1990) was > 8000 nM. The IC50 (BXPC-3) was 1860 nM, the IC50 (OVCAR-3) was > 8000 nM and the IC50 (SR) was 1880 nM. The IC50 (T47D) was > 8000 nM, the IC50 (LP-1) was > 8000 nM and the IC50 (SN12C) was > 8000 nM. The IC50 (MDA-MB-231) was > 8000 nM, the IC50 (HSC-3) was > 8000 nM and the IC50 (NCI-H1694) was > 8000 nM. For the same compound, the IC50 (RL) was > 8000 nM, the IC50 (C-33-A) was 2670 nM and the IC50 (EVSA-T) was > 8000 nM. For the same compound, the IC50 (NCI-H1437) was 4150 nM, the IC50 (PC-14) was 3620 nM and the IC50 (HCC1599) was > 8000 nM. The IC50 (AU565) was 2550 nM, the IC50 (UACC-812) was > 8000 nM and the IC50 (DK-MG) was > 8000 nM. For the same compound, the IC50 (NCI-H889) was > 8000 nM, the IC50 (KMS-12-PE) was > 8000 nM and the IC50 (NCI-H1623) was > 8000 nM. For the same compound, the IC50 (HCC1937) was 3250 nM, the IC50 (NCI-H1563) was > 8000 nM and the IC50 (CWR22R) was > 8000 nM. The IC50 (LC4-1) was 7650 nM, the IC50 (LCLC-103H cell line) was > 8000 nM and the IC50 (G-361) was > 8000 nM. The IC50 (LoVo) was 2700 nM, the IC50 (Daoy) was > 8000 nM and the IC50 (COLO-679) was > 8000 nM. For the same compound, the IC50 (MeWo) was > 8000 nM, the IC50 (NCI-H345) was > 8000 nM and the IC50 (Raji) was > 8000 nM. For the same compound, the IC50 (U-251) was > 8000 nM, the IC50 (HCC1395) was > 8000 nM and the IC50 (EHEB) was > 8000 nM. The IC50 (J82) was 4340 nM, the IC50 (NB12) was > 8000 nM and the IC50 (NCI-H441) was 5480 nM. The IC50 (NCI-N87) was > 8000 nM, the IC50 (OVCAR-5) was > 8000 nM and the IC50 (NCI-H522) was 4930 nM. The IC50 (CAL-39) was > 8000 nM, the IC50 (NCI-H727) was 893 nM and the IC50 (MDA-MB-157) was 7070 nM. For the same compound, the IC50 (CMK) was 2750 nM, the IC50 (A2780) was > 8000 nM and the IC50 (OAW-42) was 7700 nM. The IC50 (SNU-C1) was > 8000 nM, the IC50 (CHL-1) was 6100 nM and the IC50 (NCI-H1573) was > 8000 nM. The IC50 (A-375) was > 8000 nM, the IC50 (SK-MM-2) was > 8000 nM and the IC50 (A-427) was > 8000 nM. For the same compound, the IC50 (LOUCY) was > 8000 nM.
`CC(O)(CS(=O)(=O)c1ccc(F)cc1)C(=O)Nc1ccc(C#N)c(C(F)(F)F)c1` (stereo not drawn) [BICALUTAMIDE] was tested, and the IC50 (SK-MES-1) was > 1020 nM, the IC50 (NUGC-3) was > 1020 nM and the IC50 (BHY) was > 1020 nM. For the same compound, the IC50 (D-542MG) was > 1020 nM, the IC50 (SIMA) was > 1020 nM and the IC50 (HT-1080) was > 1020 nM. The IC50 (Ca-Ski) was > 1020 nM, the IC50 (HSC-2) was > 1020 nM and the IC50 (SW1990) was > 1020 nM. The IC50 (BXPC-3) was > 1020 nM, the IC50 (OVCAR-3) was > 1020 nM and the IC50 (SR) was > 1020 nM. The IC50 (T47D) was > 1020 nM, the IC50 (LP-1) was > 1020 nM and the IC50 (SN12C) was > 1020 nM. The IC50 (MDA-MB-231) was > 1020 nM, the IC50 (HSC-3) was > 1020 nM and the IC50 (NCI-H1694) was > 1020 nM. The IC50 (RL) was > 1020 nM, the IC50 (C-33-A) was > 1020 nM and the IC50 (EVSA-T) was > 1020 nM. For the same compound, the IC50 (NCI-H1437) was > 1020 nM, the IC50 (PC-14) was > 1020 nM and the IC50 (HCC1599) was > 1020 nM. The IC50 (AU565) was > 1020 nM, the IC50 (UACC-812) was > 1020 nM and the IC50 (DK-MG) was > 1020 nM. For the same compound, the IC50 (NCI-H889) was > 1020 nM, the IC50 (KMS-12-PE) was > 1020 nM and the IC50 (NCI-H1623) was > 1020 nM. The IC50 (HCC1937) was > 1020 nM, the IC50 (NCI-H1563) was > 1020 nM and the IC50 (CWR22R) was > 1020 nM. For the same compound, the IC50 (LC4-1) was > 1020 nM, the IC50 (LCLC-103H cell line) was > 1020 nM and the IC50 (G-361) was > 1020 nM. For the same compound, the IC50 (LoVo) was > 1020 nM, the IC50 (Daoy) was > 1020 nM and the IC50 (COLO-679) was > 1020 nM. For the same compound, the IC50 (MeWo) was > 1020 nM, the IC50 (NCI-H345) was > 1020 nM and the IC50 (Raji) was > 1020 nM. For the same compound, the IC50 (U-251) was > 1020 nM, the IC50 (HCC1395) was > 1020 nM and the IC50 (EHEB) was > 1020 nM. The IC50 (J82) was > 1020 nM, the IC50 (NB12) was > 1020 nM and the IC50 (NCI-H441) was > 1020 nM. For the same compound, the IC50 (NCI-N87) was > 1020 nM, the IC50 (OVCAR-5) was > 1020 nM and the IC50 (NCI-H522) was > 1020 nM. The IC50 (CAL-39) was > 1020 nM, the IC50 (NCI-H727) was > 1020 nM and the IC50 (MDA-MB-157) was > 1020 nM. For the same compound, the IC50 (CMK) was > 1020 nM, the IC50 (A2780) was > 1020 nM and the IC50 (OAW-42) was > 1020 nM. For the same compound, the IC50 (SNU-C1) was > 1020 nM, the IC50 (CHL-1) was > 1020 nM and the IC50 (NCI-H1573) was > 1020 nM. For the same compound, the IC50 (A-375) was > 1020 nM, the IC50 (SK-MM-2) was > 1020 nM and the IC50 (A-427) was > 1020 nM. The IC50 (LOUCY) was > 1020 nM.
